# Test results reported in patent publication US20190185896A1, “Stimulation of Regenerative Processes and Factors by Noble Gases” (NOBILIS THERAPEUTICS, INC., priority 2017, published 2019).
# Legend:
# [1] = tested on: VEGF expression in fibroblasts; test: VEGF expression in fibroblasts in vitro (immunofluorescence staining, western blotting); type: cell-based; details: 75% Argon+25% O2, 24 h after treatment
# [2] = tested on: a SMA expression in fibroblasts; test: a-SMA expression in fibroblasts in vitro (immunofluorescence staining, western blotting); type: cell-based; details: 75% Argon+25% O2, 10 ng/ml TGF, 72 h after treatment
# Description: For in vitro fluorescence staining, cells were fixed in paraformaldehyde in 0.1 mol/l PBS solution. Cells were then incubated in 10% normal donkey serum in 0.1 mol/l PBS-Tween 20 and then incubated overnight with rabbit anti-angiopoietin-1 (1:200, Abcam), rabbit anti-TGF-β (1:200, Abcam), rabbit α-SMA (1:200, Abcam), followed by incubation with secondary antibody for 1 h. The slides were counterstained with nuclear dye DAPI and mounted with VECTASHIELD Mounting Medium (Vector Laboratories, Burlingame, Calif.). Sections were examined using an Olympus (Watford, UK) BX4 microscope.
# HUVEC cell sample was stored in a −80° C. freezer until use. Cell samples were homogenized in ice-cold cell lysis buffer (20 mM Tris pH 7.5, 1% Triton X-100, 150 mM sodium chloride, 1% pyrophosphate, 1% betaglycophosphate, 1% NP-40, 0.1% SDS, 1 mM EDTA, 100 μg/ml phenylmethylsulfonyl fluoride, 1 μg/ml aprotinin). All homogenates were then centrifuged for 20 minutes at 15,000 rpm at 4° C. The supernatants were then extracted and protein quantification was carried out using a Bradford protein quantification assay kit (Bio-Rad, Hemel Hempstead, UK). […]
# Membranes were then blocked in 5% non-fat powdered milk in TBST (50 mM Tris-HCl, 150 mM sodium chloride, 0.1% Tween 20, pH 7.4). […] Protein bands were then analyzed by densitometric quantification with Adobe PhotoShop (Adobe Systems, California, USA). […]
# [3] = tested on: Angiopoietin 1; test: Angiopoietin 1 staining of adult mouse cutaneous wounds; type: in vivo; details: mouse cutaneous wounds, 3, 5, 8 day after wound, versus 75% N2
# Source text: (§1) To create the excisional wounds, adult mice were anesthetized and the dorsal skin was shaved, after sanitizing with 70% ethanol, 4 full-thickness excisional wounds were generated with a 4-mm sterile punch (stiefel laboratories, Research Triangel Park, N.C.). On the dorsal skin using 4-mm-diameter dermal biopsy punches through the two layers of skin (Miltex Inc.).
# (§2) The perfusion fixed skin tissue was cryosectioned (thickness 30 μm) and mounted on Superfrost Plus glass slides for the process of immunostaining analysis. The sections were initially incubated by a solution of 0.3% hydrogen peroxide in methanol to quench endogenous peroxidase before being exposed to a blocking solution of 0.1M phosphate buffered saline (PBS) containing 0.3% Triton X-100 and 3% natural sheep serum (NSS). Following this process of blocking the sections were incubated overnight at […] with rat polyclonal angiopoietin 1, VEGF, CD34, TGF-β (Abcam, UK). […]
# (§3) (A) Angiopoietin 1 staining of adult mouse cutaneous wounds. […] Right lane: the intensity of Angiopoietin 1 was quantified by densitometry and normalized by 75% N2 at 3 day (mean±S.D, n=10), * p<0.05. […] The intensity of VEGF was quantified by densitometry and normalized by 75% N2 at 3 day (mean±S.D, n=10), * p<0.05.
# [4] = tested on: VEGF; test: VEGF staining of adult mouse cutaneous wounds; type: in vivo; details: mouse cutaneous wounds, 3, 5, 8 day after wound, versus 75% N2
# Source text: as §1, §2, §3
# [5] = tested on: CD34; test: Anti-CD34 immunohistochemistry of skin wound samples (new vessels in the wound area); type: in vivo, mice; details: mouse skin wound samples, versus Nitrogen
# Source text: as §1, §2
# (§4) (A) Immunohistochemical analyses using anti-CD34 in skin wound samples from the mice treated with Nitrogen and Argon. […] The numbers of new vessels per a high-power microscopic field (×100) in 10 fields/a slide was counted. […] The intensity of TGFβ was quantified by densitometry and normalized by 75% N2 at 3 day (mean±S.D, n=10), * p<0.05.
# [6] = tested on: TGF-β; test: TGFβ staining of adult mouse cutaneous wounds; type: in vivo; details: mouse cutaneous wounds, 3, 5, 8 day after wound, versus 75% N2
# Source text: as §1, §2, §4
# [7] = tested on: skin wound; test: Skin wound healing in mice (excisional wounds); type: in vivo; details: 75% Argon versus 75% nitrogen
# Source text: as §1
# A Macroscopic changes in skin wound site in a mice treated with 75% nitrogen or Argon. Day 0 picture was taken immediately after injury. Representative images from 2 individual animals in both groups are shown.
# [8] = tested on: HUVECs; test: Cell migration scratch assay; type: cell-based; details: 75% argon for 2 hours, 16 hours post-exposure
# Description: The following was adopted from a previous published protocol (Liang et al., 2007) to study the influence of argon on migration of HUVECs. Prior to assay, HUVECs in EGM were re-suspended in incomplete LSGS medium and seeded onto pre-coated 12-well plates at a density of 2-3×10^5/well. The plates were incubated at 37° C. with 5% CO2 overnight for the cells to adhere to the gelatin surface as well as to create a confluent monolayer. Use of low serum condition is crucial as it ensures survival and attachment of cells while minimising their proliferation.
# Once 100% confluence was reached, the monolayers were scraped using a sterile p1000 pipette tip along the middle to create a straight-line “scratch”. After cell debris was washed off, the wells were replenished with fresh incomplete-LSGS medium.
# The plates were then exposed to normal air, 75% argon or 75% nitrogen for 2 hours. From 0 to 16 hours post-exposure, wells were examined every 4 hours. […] The cells were then fixed with 4% paraformaldehyde (Fischer, UK) for 8 minutes and stained with 0.1% crystal violet (Sigma-Aldrich, UK) for 10 minutes. Images were taken as described in the previous section.
# [9] = tested on: cerebral cortical neurons; details: 75% concentration, in vitro, regardless of presence or absence of OGD injury; cited from earlier work
smiles,measurement,setting,value
"[Ar] [Argon, argon]",VEGF expression in vitro,[1],enhanced
same,a-SMA expression in vitro,[2],enhanced
same,Angiopoietin 1 expression in vivo,[3],enhanced
same,VEGF expression in vivo,[4],enhanced
same,CD34 in vivo (new vessels in the wound area),[5],enhanced
same,TGF-β in vivo,[6],enhanced
same,Skin wound healing,[7],accelerated
same,Scratch closure by migrating cells,[8],completely closed
same,Viability and proliferation of cerebral cortical neurons,[9],potently enhanced
